Structures are written as SMILES.

Tested on in one series: not listed separately
The experiment in a line: physchem. Particulars: octanol/water.
In turn, `CI` [IODOMETHANE] displayed a lipophilicity (logP) of 1.51.

`C#CC` [PROPYNE]: the lipophilicity (logP) amounted to 0.94.

`COC(C)=O` [ACETIC ACID METHYL ESTER]: the logP turned out to be 0.18.

On to `ClCCl` [METHYLENE CHLORIDE], for which the logP was found to be 1.25.

The compound `CO` [METHYL ALCOHOL] gave a logP of -0.71.

For the compound `O=Nc1ccc(O)c(C(=O)O)c1`, the lipophilicity (logP) was 2.34.

In turn, `CCOC(C)=O` [ETHYL ACETATE] gave a logP of 0.7.

On to `FC(F)Cl`, for which the lipophilicity (logP) amounted to 1.08.

With `C=C`, the logP stood at 1.13.

In turn, `O=CO` [FORMIC ACID] came in with a logP of -0.54.

For the compound `CCOCC` [ETHER], the logP was 0.77.

Compound `C[S+]([O-])c1ccccc1` (configuration not stated) [METHYLPHENYLSULFOXIDE] registered a logP of 0.55.

Compound `COc1ccccc1` [ANISOLE] returned a logP of 2.08.

Turning to `CSc1ccccc1`, the logP was found to be 2.74.

In the case of `CCN` [ETHYLAMINE], the lipophilicity (logP) is -0.13.

As for `CF` [FLUOROMETHANE], the lipophilicity (logP) stood at 0.51.

The compound `NC(N)=O` [UREA] displayed a logP of -1.09.

In turn, `O=C(O)CBr` [BROMOACETIC ACID] registered a logP of 0.41.

For the compound `CNC(C)=O`, the log partition coefficient (logP) is -1.05.

The compound `CN(N=O)C(N)=O` [N-METHYL-N-NITROSUREA] yielded a logP of -0.16.

`C[N+](C)(C)CCI` showed a logP of -3.

Regarding `O=C(O)CS` [THIOGLYCOLIC ACID], the logP turned out to be 0.09.

For `COC` [METHOXYMETHANE], the log partition coefficient (logP) was found to be 0.1.

As to `CC(Cl)(Cl)Cl` [TRICHLOROETHANE], the logP turned out to be 2.49.

As for `Brc1ccncc1`, the log partition coefficient (logP) worked out at 1.54.

On to `OCC(F)(F)F` [TRIFLUOROETHANOL], for which the lipophilicity (logP) was 0.41.

`O=NN(CCF)C(=O)NCCCl` yielded a log partition coefficient (logP) of 0.95.

`CC[N+](=O)[O-]` [NITROETHANE] gave a log partition coefficient (logP) of 0.18.

In the case of `O=[N+]([O-])c1cccc(I)c1`, the lipophilicity (logP) was 2.94.

`CCCl` [ETHYL CHLORIDE] showed a logP of 1.43.

In the case of `CN` [METHYLAMINE], the log partition coefficient (logP) was -0.57.

As to `C=CC#N` [ACRYLONITRILE], the log partition coefficient (logP) was -0.92.

Take `O=[N+]([O-])CCO`: the logP is -0.42.

`ClC=C(Cl)Cl` [TRICHLOROETHYLENE] registered a logP of 2.29.

`C=COCC`: the lipophilicity (logP) worked out at 1.04.

`Oc1cccc(I)c1`: the logP came to 3.

For the compound `FC(Cl)Cl`, the logP is 1.55.

`CCSCC` [DIETHYL SULFIDE] returned a log partition coefficient (logP) of 1.95.

Compound `FC(F)(F)C(F)(F)F` came in with a logP of 2.

The compound `CBr` [BROMOMETHANE] registered a lipophilicity (logP) of 1.19.

The compound `N=C=N` [CARBIMIDE] came in with a logP of -0.5.

The compound `NC(=O)C(F)(F)F` [TRIFLUOROACETAMIDE] came in with a logP of 0.12.

Compound `CN(C)N=O` [N-NITROSODIMETHYLAMINE] showed a logP of -0.57.

For `CCOCCO` [2-ETHOXYETHANOL], the lipophilicity (logP) is -0.54.

`C=C=C` had a lipophilicity (logP) of 1.45.

`C=CCC` came in with a log partition coefficient (logP) of 2.4.

`Nc1cccc(Cl)c1` [3-CHLOROANILINE] showed a log partition coefficient (logP) of 1.88.

For the compound `NC(=O)C(Cl)(Cl)Cl`, the lipophilicity (logP) was 1.04.

For the compound `FCF`, the logP is 0.2.

The compound `O=c1[nH]cc(I)c(=O)[nH]1` displayed a lipophilicity (logP) of 0.04.

Compound `CC(C)N` [ISOPROPYLAMINE] returned a logP of 0.26.

As for `CC(F)F`, the logP was 0.75.

In turn, `CC#CC` registered a lipophilicity (logP) of 1.46.

On to `O=Nc1ccccc1` [NITROSOBENZENE], for which the logP came to 2.01.

Compound `FC(F)(Cl)C(F)(F)Cl` [DICHLOROTETRAFLUOROETHANE] came in with a lipophilicity (logP) of 2.82.

As for `CC(O)CN` (configuration not stated), the logP was -0.96.

Regarding `Sc1ccccc1` [BENZENETHIOL], the logP came out at 2.52.

`C=C(F)F` came in with a logP of 1.24.

The compound `Brc1ccccn1` returned a logP of 1.38.

In turn, `CS(=O)(=O)c1ccccc1` [METHYLPHENYLSULFONE] had a log partition coefficient (logP) of 0.48.

For `OCC(Cl)Cl`, the logP stood at 0.37.

`CC#N` [ACETONITRILE] had a logP of -0.34.

The compound `CCNC(N)=S` yielded a logP of -0.66.

Take `NC(=O)CBr`: the log partition coefficient (logP) was -0.52.

Take `C#C` [ETHYNE]: the logP stood at 0.37.

Consider `C1=CCOC1`, for which the log partition coefficient (logP) is 0.46.

`Clc1ccccc1` [CHLOROBENZENE] gave a lipophilicity (logP) of 2.46.

For `OCC(Cl)(Cl)Cl` [TRICHLORETHANOL], the log partition coefficient (logP) is 1.42.

Regarding `C=CC` [PROPENE], the lipophilicity (logP) came out at 1.77.

Compound `CCCCCF` showed a log partition coefficient (logP) of 2.33.

For `CC(C)N(N=O)C(C)C`, the logP came to 1.63.

In the case of `Cc1cccc([N+](C)(C)C)c1`, the logP was -2.31.

For `ClC(Cl)=C(Cl)Cl` [TETRACHLOROETHYLENE], the log partition coefficient (logP) turned out to be 2.6.

A further series deals with T1, Dihydrofolate reductase type 1 (Escherichia coli) (UniProt P00382).
T1 sequence (whole entry): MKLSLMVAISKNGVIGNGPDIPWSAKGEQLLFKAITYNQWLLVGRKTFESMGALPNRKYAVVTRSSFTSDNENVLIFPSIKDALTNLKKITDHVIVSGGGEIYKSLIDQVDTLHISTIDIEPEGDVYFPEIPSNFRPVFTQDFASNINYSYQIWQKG
The series is described as follows: Inhibition of dihydrofolate reductase (DHFR) from Escherichia coli.
Conditions: not given
Compound `CC1(C)N=C(N)N=C(N)N1c1cccc(Cc2ccccc2)c1` registered a Log 1/C of 6.55.

Turning to `CN1C(N)=NC(N)=NC1(C)C`, the Log 1/C stood at 4.32.

`CC1(C)N=C(N)N=C(N)N1Cc1ccccc1` registered a Log 1/C of 4.47.

`Nc1ncc(Cc2ccc(OC(F)(F)F)cc2)c(N)n1` came in with a Log 1/C of 6.57.

With `CC1(C)N=C(N)N=C(N)N1CCCc1ccccc1`, the Log 1/C came to 7.2.

`COc1ccc(Cc2cnc(N)nc2N)cc1C(F)(F)F` returned a Log 1/C of 7.69.

`CC1(C)N=C(N)N=C(N)N1c1ccc(C#N)cc1` registered a Log 1/C of 4.04.

`CCCN1C(N)=NC(N)=NC1(C)C` showed a Log 1/C of 5.33.

Regarding `CC1(C)N=C(N)N=C(N)N1CCc1ccccc1`, the Log 1/C worked out at 5.42.

In the case of `CC1(C)N=C(N)N=C(N)N1c1ccc(Cl)cc1`, the Log 1/C came to 6.4.

`Nc1ncc(Cc2ccc([N+](=O)[O-])cc2)c(N)n1` gave a Log 1/C of 6.2.

The compound `CC1(C)N=C(N)N=C(N)N1c1ccc(Cl)c(Cl)c1` registered a Log 1/C of 6.8.

Turning to `CCOC(=O)c1ccc(N2C(N)=NC(N)=NC2(C)C)cc1`, the Log 1/C amounted to 4.42.

`CC1(C)N=C(N)N=C(N)N1c1ccc(-c2ccccc2)cc1` came in with a Log 1/C of 5.24.

`CC1(C)N=C(N)N=C(N)N1c1cccc(Cl)c1`: the Log 1/C stood at 6.22.

Regarding `CC1(C)N=C(N)N=C(N)N1c1ccc(C(=O)O)cc1`, the Log 1/C is 2.72.

`CC1(C)N=C(N)N=C(N)N1c1cccc([N+](=O)[O-])c1` gave a Log 1/C of 5.51.

`CC1(C)N=C(N)N=C(N)N1c1cccc(C(=O)O)c1` displayed a Log 1/C of 3.89.

In turn, `COc1cccc(N2C(N)=NC(N)=NC2(C)C)c1` showed a Log 1/C of 5.41.

Compound `CS(=O)(=O)Oc1cccc(Cc2cnc(N)nc2N)c1` registered a Log 1/C of 6.92.

`CC1(C)N=C(N)N=C(N)N1c1ccccc1`: the Log 1/C is 5.52.

In turn, `CC1(C)N=C(N)N=C(N)N1c1cccc(C(F)(F)F)c1` displayed a Log 1/C of 5.64.

Take `CC(=O)Nc1ccc(Cc2cnc(N)nc2N)cc1[N+](=O)[O-]`: the Log 1/C came out at 6.97.

Tested on in the next series: not given
Experiment: not given
As to conditions: octanol/water.
Compound `NC(N)=S` [THIOUREA] registered a logP of -1.06.

What is called logP is a log measure of how a compound divides between an organic and an aqueous phase. A high value points to a more lipophilic compound.
